Laboratory results: ChEMBL document CHEMBL1201862, “PubChem BioAssay data set” (2004)
Several values for one entry are separate records, joined by “and”; a condition that tells them apart may be missing. Equal values may be shown once. Activity calls are given as the source filed them.

How the values were obtained:
[1] = target: RNA-editing ligase 1, mitochondrial (Trypanosoma brucei brucei, UniProt P86926); assay: inhibition of trypanosome RNA editing ligase – biochemical, fluorescence, Trypanosoma brucei, dose response (AID 1117295); type: functional
[2] = target: Muscarinic acetylcholine receptor M5 (Rattus norvegicus, UniProt P08911); assay: Discovery of Novel Antagonists of Muscarinic Receptor M5: Counterscreen against RAT M5.; type: functional
[3] = target: Muscarinic acetylcholine receptor M5 (Homo sapiens, UniProt P08912); assay: inhibition of ACh-evoked human M5 signalling – cell-based, CHO-K1 hM5, Fluo-4 calcium flux, ACh EC80, dose response (AID 743110); type: functional
[4] = inhibition of Env-driven cell fusion – HIV entry, plate reader, dry powder, dose response (AID 687023); type: functional, cell-based
[5] = viability loss in CEM21 cells – cell-based, plate reader, dry powder, cytotoxicity control, dose response (AID 687026); type: functional
Kallikrein-7 = Kallikrein-7 (Homo sapiens, UniProt P49862); assay: Fluorescence Intensity-based biochemical primary high throughput dose response assay to identify activators of kallikrein-7 (K7) zymogen.
cells = type: functional
Aminopeptidase N = target: T1, Aminopeptidase N (Plasmodium falciparum FcB1/Columbia, UniProt O96935); assay: malaria alanyl aminopeptidase activity blockers – biochemical, fluorogenic H-Leu-NHMec substrate, 1536-well (AID 1445); design: species or system Plasmodium falciparum 3D7, 3D7
T1 sequence (O96935 whole entry): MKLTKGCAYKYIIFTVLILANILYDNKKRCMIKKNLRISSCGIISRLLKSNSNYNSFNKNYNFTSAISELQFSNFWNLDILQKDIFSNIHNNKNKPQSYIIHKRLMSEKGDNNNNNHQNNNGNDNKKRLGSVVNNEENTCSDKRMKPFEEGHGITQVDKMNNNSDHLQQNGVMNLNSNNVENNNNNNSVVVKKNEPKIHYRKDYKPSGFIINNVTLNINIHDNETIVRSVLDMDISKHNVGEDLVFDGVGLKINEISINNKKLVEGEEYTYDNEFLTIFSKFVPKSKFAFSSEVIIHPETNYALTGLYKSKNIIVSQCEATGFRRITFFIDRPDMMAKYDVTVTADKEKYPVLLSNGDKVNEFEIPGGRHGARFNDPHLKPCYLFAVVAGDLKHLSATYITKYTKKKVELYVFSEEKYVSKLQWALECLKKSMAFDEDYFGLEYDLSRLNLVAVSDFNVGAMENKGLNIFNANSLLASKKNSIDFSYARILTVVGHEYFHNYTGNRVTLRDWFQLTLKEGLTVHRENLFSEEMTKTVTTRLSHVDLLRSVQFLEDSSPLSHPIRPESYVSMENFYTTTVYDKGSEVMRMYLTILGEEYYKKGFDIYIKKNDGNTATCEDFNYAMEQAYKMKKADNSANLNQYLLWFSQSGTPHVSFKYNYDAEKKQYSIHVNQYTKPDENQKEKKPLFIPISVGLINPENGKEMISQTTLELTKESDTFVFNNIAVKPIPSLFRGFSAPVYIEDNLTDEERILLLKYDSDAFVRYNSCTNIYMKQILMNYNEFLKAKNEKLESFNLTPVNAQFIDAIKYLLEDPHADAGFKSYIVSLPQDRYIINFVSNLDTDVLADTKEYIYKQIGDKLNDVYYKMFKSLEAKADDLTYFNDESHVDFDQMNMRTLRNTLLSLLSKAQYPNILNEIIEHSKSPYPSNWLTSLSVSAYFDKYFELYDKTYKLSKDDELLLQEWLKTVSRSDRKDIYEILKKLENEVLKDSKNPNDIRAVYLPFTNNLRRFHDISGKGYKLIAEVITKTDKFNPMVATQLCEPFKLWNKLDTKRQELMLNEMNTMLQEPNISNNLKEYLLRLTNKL

[6] = target: G-protein coupled receptor 183 (Homo sapiens, UniProt P32249); assay: SAR confirmation of small molecule antagonists of the EBI2 receptor via a luminescent beta-arrestin assa.; type: functional
Ephrin type-A receptor 4 = Ephrin type-A receptor 4 (Mus musculus, UniProt Q03137); assay: EphA4 ligand-binding antagonists – biochemical, colorimetric, mouse EphA4, primary screen (AID 689); type: functional
[7] = system: Streptococcus sp. 'group A'; assay: Streptococcus pyogenes SK(-)GAS viability under kanamycin – luminescence, BacTiterGlo, confirmation, counter-screen for streptokinase expression inhibitor project, dose response (AID 1900); type: functional, organism-based
[8] = alpha-synuclein stem-loop luciferase translation blockers – H4 neuroglioma cells, luminescence, confirmation (AID 1988); type: functional, cell-based
Streptococcus = assay: GAS UMAA2166 growth inhibition – luminescence, BacTiterGlo, counter-screen for streptokinase expression inhibitor project, dose response (AID 1915); type: functional, organism-based;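 further: potency for reduction of bacterial viability or growth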
[9] = luciferase reporter signal suppression in cells – H4 neuroglioma cells, luminescence, dose response (AID 1990); type: functional, cell-based
[10] = Luminescence Cell-Based Dose Response HTS to Identify Inhibitors of 5'UTR Stem-Loop Driven Prion Protein mRNA Translation in H4 Neuroglioblastoma Cells. [Related pubchem assays: 1827 (Project Summary), 1813 (Primary HTS)]; type: functional
Vero = assay: viability of Vero cells under compound – cytotoxicity control for flavivirus capping enzyme inhibitors (AID 588742); type: functional; settings: Chlorocebus sabaeus
Streptokinase A = target: T2, Streptokinase A (Streptococcus pyogenes serotype M1, UniProt P10520); assay: viability-normalized secreted streptokinase activity reduction – plasminogen activation absorbance, OD405, dose response (AID 1914); type: functional, Streptococcus pyogenes M1 GAS;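 further: secreted streptokinase activity via plasminogen activation per viability signal from cell pellet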
T2 sequence (P10520 whole entry): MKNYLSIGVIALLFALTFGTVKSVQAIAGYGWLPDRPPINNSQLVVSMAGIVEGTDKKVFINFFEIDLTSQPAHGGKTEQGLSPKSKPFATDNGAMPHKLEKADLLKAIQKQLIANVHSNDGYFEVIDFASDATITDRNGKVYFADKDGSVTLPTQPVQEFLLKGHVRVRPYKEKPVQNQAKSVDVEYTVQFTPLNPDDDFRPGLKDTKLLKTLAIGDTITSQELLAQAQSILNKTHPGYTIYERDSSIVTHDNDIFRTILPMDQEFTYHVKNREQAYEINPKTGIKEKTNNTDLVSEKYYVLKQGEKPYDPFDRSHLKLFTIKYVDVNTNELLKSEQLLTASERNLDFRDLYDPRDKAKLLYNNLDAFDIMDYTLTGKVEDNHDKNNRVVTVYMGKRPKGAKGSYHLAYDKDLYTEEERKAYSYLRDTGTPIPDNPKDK

[11] = IC50 of Artemis nuclease activity blockers – biochemical, fluorescence intensity, dose response (AID 720701); type: functional;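 further: Artemis endonuclease enzyme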
[12] = target: T3, Heat shock factor protein 1 (Mus musculus, UniProt P38532); assay: enhancement of HSF1-driven luciferase signal – cell-based, NIH3T3, luminescence, dose retest, confirmation (AID 435004); type: functional;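 further: stress induced by proteasome inhibitor MG132 added 30 min after compound; luciferase reporter driven by HSF1 response element in NIH3T3 cells; actives raise luminescence as potentiators of the MG132 stress response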
T3 sequence (P38532 whole entry): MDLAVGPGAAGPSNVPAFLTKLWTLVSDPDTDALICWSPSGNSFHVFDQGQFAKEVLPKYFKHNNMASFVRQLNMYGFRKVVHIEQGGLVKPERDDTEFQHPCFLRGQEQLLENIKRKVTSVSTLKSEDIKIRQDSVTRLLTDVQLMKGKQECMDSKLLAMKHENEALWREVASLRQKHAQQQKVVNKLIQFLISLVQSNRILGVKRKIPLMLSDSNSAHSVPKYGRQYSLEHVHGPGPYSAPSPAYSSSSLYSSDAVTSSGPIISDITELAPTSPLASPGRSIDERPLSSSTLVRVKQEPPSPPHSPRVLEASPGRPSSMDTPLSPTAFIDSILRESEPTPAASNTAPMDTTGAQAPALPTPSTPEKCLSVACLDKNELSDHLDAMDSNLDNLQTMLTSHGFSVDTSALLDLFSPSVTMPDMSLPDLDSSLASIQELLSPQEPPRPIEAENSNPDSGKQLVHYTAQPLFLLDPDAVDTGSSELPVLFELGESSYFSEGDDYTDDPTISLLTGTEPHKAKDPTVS

[13] = target: Heat shock protein HSP 90-alpha (Homo sapiens, UniProt P07900); type: functional, organism-based
[14] = Dd2 parasite growth inhibition in erythrocytes – SYBR Green, dry powder samples, set 9, dose response (AID 1159568); type: functional, cell-based
[15] = OV-90 cell viability loss – plate reader, dry powder, SA8, PAX8 inhibitor project, dose response (AID 743149); type: functional, cell-based
[16] = OVCAR-3 cell viability loss – plate reader, dry powder samples, PAX8 inhibitor project, dose response (AID 743044); type: functional, cell-based
Paired box protein Pax-8 = Paired box protein Pax-8 (Homo sapiens, UniProt Q06710); assay: PAX8 transcriptional activity inhibition in RMG-I – RMG-I cells, luciferase, cherry-pick, dose response (AID 687027); type: functional, cell-based;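 further: luciferase reporter driven by Pax8 target thyroperoxidase promoter measured by SteadyGlo luminescence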
[17] = COV434 cell viability loss – plate reader, dry powder, SA7, cytotoxicity control for PAX8 inhibitor project, dose response (AID 743145); type: functional, cell-based
[18] = PAX8-dependent cell viability loss – plate reader, dry powder, dose response (AID 743049); type: functional, cell-based
[19] = inhibitors acting on PAX2 in cells – cell-based, plate reader, dry powder samples, selectivity assay for PAX8 inhibitor project, dose response (AID 743048); type: functional;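 further: HEK293 cells carrying a WT1 promoter luciferase reporter driven by expressed Pax2; potency is for inhibition of Pax2 driven reporter signal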
[20] = PAX5 cellular inhibition readout – cell-based, plate reader, dry powder samples, selectivity assay for PAX8 inhibitor project, dose response (AID 743047); type: functional;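 further: HEK293 cells carrying a Pax5 driven CD19 promoter luciferase reporter; potency of inhibitors that lower reporter luminescence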
[21] = COV362 cell viability loss – plate reader, dry powder, SA12, cytotoxicity control for PAX8 inhibitor project, dose response (AID 743144); type: functional, cell-based
[22] = cytotoxicity in HEK293 background cells – cell-based, dry powder, set 2, counter-screen for EBV LMP1 inhibitor project, dose response (AID 624374); type: functional

Sequence of G-protein coupled receptor 183 (P32249 whole entry): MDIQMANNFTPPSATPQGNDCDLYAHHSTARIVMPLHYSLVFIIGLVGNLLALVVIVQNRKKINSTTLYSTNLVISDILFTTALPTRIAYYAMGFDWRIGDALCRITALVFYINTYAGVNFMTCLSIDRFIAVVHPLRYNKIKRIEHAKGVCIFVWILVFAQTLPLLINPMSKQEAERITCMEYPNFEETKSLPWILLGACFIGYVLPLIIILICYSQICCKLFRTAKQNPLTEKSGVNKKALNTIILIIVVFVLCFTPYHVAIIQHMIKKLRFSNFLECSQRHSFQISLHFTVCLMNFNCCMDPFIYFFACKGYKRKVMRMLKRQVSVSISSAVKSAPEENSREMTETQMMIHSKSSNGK
Sequence of Muscarinic acetylcholine receptor M5 (Homo sapiens, UniProt P08912) (P08912 whole entry, the tested form may be a part): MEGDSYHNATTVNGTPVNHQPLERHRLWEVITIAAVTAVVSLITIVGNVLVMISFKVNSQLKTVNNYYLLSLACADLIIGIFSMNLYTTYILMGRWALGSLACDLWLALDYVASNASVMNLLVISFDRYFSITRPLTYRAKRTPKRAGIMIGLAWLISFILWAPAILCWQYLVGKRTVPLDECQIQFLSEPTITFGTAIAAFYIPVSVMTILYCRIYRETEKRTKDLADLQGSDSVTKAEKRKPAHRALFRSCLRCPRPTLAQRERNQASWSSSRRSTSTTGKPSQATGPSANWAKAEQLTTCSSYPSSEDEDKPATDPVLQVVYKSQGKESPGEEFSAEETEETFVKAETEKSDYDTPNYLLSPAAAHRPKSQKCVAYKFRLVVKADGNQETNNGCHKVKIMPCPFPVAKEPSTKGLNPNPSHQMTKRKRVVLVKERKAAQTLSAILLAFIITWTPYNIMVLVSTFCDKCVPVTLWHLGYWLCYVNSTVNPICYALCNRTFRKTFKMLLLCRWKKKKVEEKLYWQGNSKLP
Sequence of Kallikrein-7 (P49862 whole entry): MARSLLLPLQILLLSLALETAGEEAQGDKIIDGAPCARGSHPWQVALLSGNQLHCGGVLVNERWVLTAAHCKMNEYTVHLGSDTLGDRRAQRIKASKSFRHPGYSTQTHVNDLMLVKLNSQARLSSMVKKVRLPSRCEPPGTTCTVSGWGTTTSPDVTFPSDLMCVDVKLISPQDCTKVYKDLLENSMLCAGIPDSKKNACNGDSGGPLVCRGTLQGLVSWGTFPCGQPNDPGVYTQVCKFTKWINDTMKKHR
Sequence of Muscarinic acetylcholine receptor M5 (Rattus norvegicus, UniProt P08911) (P08911 whole entry): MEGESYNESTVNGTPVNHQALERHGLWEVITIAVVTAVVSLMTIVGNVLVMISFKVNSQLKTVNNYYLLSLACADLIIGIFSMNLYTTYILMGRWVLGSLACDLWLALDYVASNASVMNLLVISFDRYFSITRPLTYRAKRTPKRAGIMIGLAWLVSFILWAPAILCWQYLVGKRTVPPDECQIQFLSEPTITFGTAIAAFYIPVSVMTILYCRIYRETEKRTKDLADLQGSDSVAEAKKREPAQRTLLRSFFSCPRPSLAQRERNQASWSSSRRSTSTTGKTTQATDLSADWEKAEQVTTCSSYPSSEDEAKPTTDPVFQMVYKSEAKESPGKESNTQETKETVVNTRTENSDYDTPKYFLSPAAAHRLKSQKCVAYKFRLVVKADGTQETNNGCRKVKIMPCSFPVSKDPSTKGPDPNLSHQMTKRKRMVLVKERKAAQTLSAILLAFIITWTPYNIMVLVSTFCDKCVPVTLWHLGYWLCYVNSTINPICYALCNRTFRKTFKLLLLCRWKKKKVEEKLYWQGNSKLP
Sequence of RNA-editing ligase 1, mitochondrial (P86926 whole entry): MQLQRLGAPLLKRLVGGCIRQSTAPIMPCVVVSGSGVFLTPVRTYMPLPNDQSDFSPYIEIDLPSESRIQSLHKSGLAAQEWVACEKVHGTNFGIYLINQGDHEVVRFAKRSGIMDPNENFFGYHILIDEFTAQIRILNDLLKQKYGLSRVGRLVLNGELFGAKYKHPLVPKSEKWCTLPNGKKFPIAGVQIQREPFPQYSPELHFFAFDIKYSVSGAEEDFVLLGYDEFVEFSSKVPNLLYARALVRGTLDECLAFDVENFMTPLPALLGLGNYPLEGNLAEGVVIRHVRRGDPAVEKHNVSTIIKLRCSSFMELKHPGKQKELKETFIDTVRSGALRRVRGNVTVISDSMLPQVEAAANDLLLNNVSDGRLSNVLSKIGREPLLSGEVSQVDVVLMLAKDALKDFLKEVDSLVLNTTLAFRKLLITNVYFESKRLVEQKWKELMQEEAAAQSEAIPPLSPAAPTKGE
Sequence of Paired box protein Pax-8 (Q06710 whole entry): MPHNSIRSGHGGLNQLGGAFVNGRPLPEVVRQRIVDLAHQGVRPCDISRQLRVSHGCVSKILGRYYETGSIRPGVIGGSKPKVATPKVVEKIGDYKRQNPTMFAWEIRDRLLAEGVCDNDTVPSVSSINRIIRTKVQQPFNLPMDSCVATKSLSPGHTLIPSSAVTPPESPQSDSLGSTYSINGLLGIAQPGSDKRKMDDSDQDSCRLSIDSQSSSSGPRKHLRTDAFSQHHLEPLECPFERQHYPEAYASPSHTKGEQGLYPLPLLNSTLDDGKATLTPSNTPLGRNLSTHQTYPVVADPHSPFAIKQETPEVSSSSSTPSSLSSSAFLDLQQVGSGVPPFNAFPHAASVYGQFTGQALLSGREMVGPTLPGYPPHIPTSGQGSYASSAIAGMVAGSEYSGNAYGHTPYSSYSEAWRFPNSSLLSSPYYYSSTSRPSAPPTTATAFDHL
Sequence of Ephrin type-A receptor 4 (Q03137 whole entry): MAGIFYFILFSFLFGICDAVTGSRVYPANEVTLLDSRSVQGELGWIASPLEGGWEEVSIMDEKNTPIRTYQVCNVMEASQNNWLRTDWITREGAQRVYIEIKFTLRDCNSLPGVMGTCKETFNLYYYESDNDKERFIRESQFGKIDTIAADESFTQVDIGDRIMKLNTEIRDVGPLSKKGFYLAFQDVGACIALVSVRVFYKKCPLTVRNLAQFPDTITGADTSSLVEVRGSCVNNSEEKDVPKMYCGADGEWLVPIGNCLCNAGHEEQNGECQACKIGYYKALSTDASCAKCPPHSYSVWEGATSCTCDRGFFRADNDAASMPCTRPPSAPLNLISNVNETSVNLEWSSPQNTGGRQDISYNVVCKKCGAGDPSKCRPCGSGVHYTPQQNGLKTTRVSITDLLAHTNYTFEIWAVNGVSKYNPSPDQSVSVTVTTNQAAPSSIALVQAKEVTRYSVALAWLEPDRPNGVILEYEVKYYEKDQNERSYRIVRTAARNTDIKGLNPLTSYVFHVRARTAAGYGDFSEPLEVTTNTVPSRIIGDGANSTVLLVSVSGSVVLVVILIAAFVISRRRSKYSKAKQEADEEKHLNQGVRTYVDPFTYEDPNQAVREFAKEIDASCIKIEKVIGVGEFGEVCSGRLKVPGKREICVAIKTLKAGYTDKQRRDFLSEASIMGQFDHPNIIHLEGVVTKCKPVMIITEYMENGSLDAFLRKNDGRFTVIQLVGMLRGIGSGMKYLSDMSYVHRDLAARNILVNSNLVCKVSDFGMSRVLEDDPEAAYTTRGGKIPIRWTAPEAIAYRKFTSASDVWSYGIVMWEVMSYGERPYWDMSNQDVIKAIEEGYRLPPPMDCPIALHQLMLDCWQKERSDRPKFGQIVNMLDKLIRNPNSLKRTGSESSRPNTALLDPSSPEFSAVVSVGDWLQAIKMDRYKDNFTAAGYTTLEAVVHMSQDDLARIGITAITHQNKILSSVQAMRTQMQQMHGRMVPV

Q: With COC(=O)C1=C(C)N(Cc2cccc(C(F)(F)F)c2)C(NCc2ccc3c(c2)OCO3)=NC1c1ccccc1C(F)(F)F (stereo not given) as the compound, how does the IC50 [1] read?
A: > 96.6 µM (inactive)

Q: Which IC50 [2] does the source give for CCN(C(=O)c1cc(COc2cccc(C(C)=O)c2)on1)C(C)c1ccccn1 (stereo not given) here?
A: 6.84 µM (active)

Q: What about the IC50 [3] of the same compound?
A: 5.55 µM (active)

Q: For COc1ccc(S(=O)(=O)NCc2ccncc2)cc1OC, which AC50 [4] is on record?
A: 25.4 µM (active) and 32 µM (active)

Q: What about the AC50 [5] of the same compound?
A: > 70 µM (inactive)

Q: Which EC50 (Kallikrein-7) does the source give for O=C(Oc1c(-c2ccco2)oc2ccccc2c1=O)c1cccnc1 here?
A: 19.6 µM (inactive)

Q: What about the IC50 (cells) of the same compound?
A: 20.5 µM (active)

Q: What about the IC50 (Aminopeptidase N) of the same compound?
A: 129 µM (active)

Q: Which IC50 [6] does the source give for O=C(/C=C/c1ccc(F)cc1)N1CCN(S(=O)(=O)c2cccs2)CC1 here?
A: 0.081 µM (active)

Q: What does the source list for O=C(/C=C/c1ccccc1)c1cc(Br)ccc(=O)c1O?
A: IC50 (Ephrin type-A receptor 4): 17.3 µM (active); EC50 [7]: 1.95 µM (active); EC50 [8]: > 120 µM (not active); EC50 (Streptococcus): 7.42 µM (active); EC50 [9]: 11.6 µM (active); EC50 [10]: > 120 µM (not active); CC50 (Vero): 5.71 µM (active); EC50 (Streptokinase A): > 150 µM (not active); IC50 [11]: 19.1 µM (active); EC50 [12]: 15.9 µM (active); AC50 [13]: 3.01 µM (active)

Q: For Cc1noc(C)c1S(=O)(=O)N(C)C[C@@H]1OCCCC[C@@H](C)Oc2ccc(N(C)C)cc2C(=O)N([C@@H](C)CO)C[C@H]1C, which AC50 [14] is on record?
A: 10.6 µM (active)

Q: With C[C@@H]1CN([C@@H](C)CO)S(=O)(=O)c2ccc(C#Cc3ccncc3)cc2O[C@H]1CN(C)C(=O)Nc1ccc2c(c1)OCO2 as the compound, how does the AC50 [15] read?
A: 8.27 µM (active)

Q: What about the AC50 [16] of the same compound?
A: 19.1 µM (active)

Q: What about the AC50 (Paired box protein Pax-8) of the same compound?
A: 2.44 µM (active)

Q: And the AC50 [17]?
A: 0.179 µM (active)

Q: And the AC50 [18]?
A: 13 µM (active)

Q: And the AC50 [19]?
A: 22.7 µM (active)

Q: And the AC50 [20]?
A: 31.1 µM (active)

Q: And the AC50 [21]?
A: 0.0878 nM (active)

Q: What about the AbsAC35 [22] of the same compound?
A: 39.06 µM
